From ChEMBL document CHEMBL1201862, “PubChem BioAssay data set” (2004)
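96-well plates; 48 h exposure; 5 concentrations. Endpoints by linear interpolation between flanking doses. Not reached: highest tested concentration assigned. Abbreviation: GI50, concentration required for 50% inhibition of growth.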 Active and inactive are the calls of the source. Cut-off read from the data, not from the text of the source: active = GI50 up to about 1.1 µM and inactive = higher.

Tests used:
Assay in all cases: NCI-60 cell line screen, 48 h
786-0 = test system: 786-0
A498 = test system: A498
A549 = test system: A549
ACHN = test system: ACHN
BT-549 = test system: BT-549
CAKI-1 = test system: CAKI-1
CCRF-CEM = test system: CCRF-CEM
COLO 205 = test system: COLO 205
DU-145 = test system: DU-145
EKVX = test system: EKVX
HCC 2998 = test system: HCC 2998
HCT-116 = test system: HCT-116
HCT-15 = test system: HCT-15
HL-60 = test system: HL-60
HOP-62 = test system: HOP-62
HOP-92 = test system: HOP-92
HT-29 = test system: HT-29
Hs-578T = test system: Hs-578T
IGROV-1 = test system: IGROV-1
K562 = test system: K562
LOX IMVI = test system: LOX IMVI
M14 = test system: M14
MCF7 = test system: MCF7
MDA-MB-231 = test system: MDA-MB-231
MDA-MB-435 = test system: MDA-MB-435
MDA-N = test system: MDA-N
MOLT-4 = test system: MOLT-4
Malme-3M = test system: Malme-3M
NCI-H226 = test system: NCI-H226
NCI-H23 = test system: NCI-H23
NCI-H460 = test system: NCI-H460
NCI-H522 = test system: NCI-H522
NCI/ADR-RES = test system: NCI/ADR-RES
OVCAR-3 = test system: OVCAR-3
OVCAR-4 = test system: OVCAR-4
OVCAR-5 = test system: OVCAR-5
OVCAR-8 = test system: OVCAR-8
PC-3 = test system: PC-3
RPMI-8226 = test system: RPMI-8226
RXF 393 = test system: RXF 393
SF-268 = test system: SF-268
SF-295 = test system: SF-295
SF-539 = test system: SF-539
SK-MEL-28 = test system: SK-MEL-28
SK-MEL-2 = test system: SK-MEL-2
SK-MEL-5 = test system: SK-MEL-5
SK-OV-3 = test system: SK-OV-3
SN12C = test system: SN12C
SNB-19 = test system: SNB-19
SNB-75 = test system: SNB-75
SW-620 = test system: SW-620
T47D = test system: T47D
TK-10 = test system: TK-10
U-251 = test system: U-251
UACC-257 = test system: UACC-257
UACC-62 = test system: UACC-62
UO-31 = test system: UO-31

What does the source list for `O=C(CCCc1ccccn1)c1ccccc1`?
GI50 (786-0): > 100 µM (inactive); GI50 (A498): > 100 µM (inactive); GI50 (A549): > 100 µM (inactive); GI50 (ACHN): > 100 µM (inactive); GI50 (BT-549): > 100 µM (inactive); GI50 (CAKI-1): > 100 µM (inactive); GI50 (CCRF-CEM): > 100 µM (inactive); GI50 (COLO 205): > 100 µM (inactive); GI50 (DU-145): > 100 µM (inactive); GI50 (EKVX): > 100 µM (inactive); GI50 (HCC 2998): > 100 µM (inactive); GI50 (HCT-116): > 100 µM (inactive); GI50 (HCT-15): > 100 µM; GI50 (HL-60): > 100 µM (inactive); GI50 (HOP-62): > 100 µM (inactive); GI50 (HOP-92): > 100 µM (inactive); GI50 (HT-29): > 100 µM (inactive); GI50 (Hs-578T): > 100 µM (inactive); GI50 (IGROV-1): > 100 µM (inactive); GI50 (K562): > 100 µM (inactive); GI50 (LOX IMVI): > 100 µM (inactive); GI50 (M14): > 100 µM (inactive); GI50 (MCF7): > 100 µM (inactive); GI50 (MDA-MB-231): > 100 µM (inactive); GI50 (MDA-MB-435): > 100 µM (inactive); GI50 (MDA-N): > 100 µM (inactive); GI50 (MOLT-4): > 100 µM (inactive); GI50 (Malme-3M): > 100 µM (inactive); GI50 (NCI-H226): > 100 µM (inactive); GI50 (NCI-H23): > 100 µM (inactive); GI50 (NCI-H460): > 100 µM (inactive); GI50 (NCI-H522): > 100 µM (inactive); GI50 (NCI/ADR-RES): > 100 µM (inactive); GI50 (OVCAR-3): > 100 µM (inactive); GI50 (OVCAR-4): > 100 µM (inactive); GI50 (OVCAR-5): > 100 µM (inactive); GI50 (OVCAR-8): > 100 µM (inactive); GI50 (PC-3): > 100 µM (inactive); GI50 (RPMI-8226): > 100 µM (inactive); GI50 (RXF 393): > 100 µM (inactive); GI50 (SF-268): > 100 µM (inactive); GI50 (SF-295): > 100 µM (inactive); GI50 (SF-539): > 100 µM (inactive); GI50 (SK-MEL-28): > 100 µM (inactive); GI50 (SK-MEL-2): > 100 µM (inactive); GI50 (SK-MEL-5): > 100 µM (inactive); GI50 (SK-OV-3): > 100 µM (inactive); GI50 (SN12C): > 100 µM (inactive); GI50 (SNB-19): > 100 µM (inactive); GI50 (SNB-75): > 100 µM (inactive); GI50 (SW-620): > 100 µM (inactive); GI50 (T47D): > 100 µM (inactive); GI50 (TK-10): > 100 µM (inactive); GI50 (U-251): > 100 µM (inactive); GI50 (UACC-257): > 100 µM (inactive); GI50 (UACC-62): > 100 µM (inactive); GI50 (UO-31): > 100 µM (inactive)
